{"source": "patent US20060205761A1", "about": "“Ccr-2 antagonists for treatment of neuropathic pain” (priority 2003, published 2006)", "key": {"[1]": {"test_system": "formalin-induced pain behavior", "test": "Mouse formalin test", "assay_type": "in vivo", "settings": "for decrease of pain behavior in the formalin test: 60 min before formalin", "description": "Formalin Test: For 4 days prior to testing, mice were acclimated for 2 hours every day on the test platform. On the day of study, mice were placed for 1 hour on the test platform, and subsequently were administered 10 μl of 2% formalin in the plantar surface of the left paw. The time mice spent either licking or lifting the injected paw was recorded over 2-minute periods at 5-minute intervals for 50 minutes. […] Phase 1 (0-10 min post-injection) is considered to reflect acute pain, whereas phase 2 (10-50 min post-injection) reflects chronic, inflammatory pain. The formalin test: a quantitative study of the analgesic effects of morphine, meperidine, and brain stem stimulation in rats and cats. Pain. December 1977;4(2):161-74) Intragastrical administration by gavage: Compound and vehicle were given via a 18 G Gavage needle at 0.2 ml/30 g of the mouse body weight. Compounds: A CCR-2 antagonist having the formula: [drawing 1085] (CCR-2 Antagonist “A”) was tested in the formalin test and the mouse nerve injury model. A second CCR-2 antagonist: [drawing 1086] (CCR-2 Antagonist “B”) was tested in the formalin test only. Both compounds were diluted in 0.5% methylcellulose and were dosed p.o. at a volume of 0.2 ml per 30 g body-weight. For the formalin test, compounds were administered 60 min before the formalin injection. For the nerve injury model, Compound A was tested 4-5 days after surgery. A third CCR-2 antagonist having the formula: [drawing 1087] (CCR-2 Antagonist “C”) was tested in the rat nerve model, MCP-1 co-administration model, the carrageenan model and the CFA model. The compound was dissolved into ethanol/H2O=9/95 prior to testing."}, "[2]": {"test_system": "mechanical allodynia induced by MCP-1", "test": "Intrathecal MCP-1 injection and co-injection with CCR-2 antagonist, 50% paw withdrawal threshold", "assay_type": "in vivo", "settings": "rat", "description": "Intrathecal administration by intrathecal catheter: Using Hamilton syringe to inject each rat: 5 μl compound or vehicle, 1 μl air and 9 μl vehicle. Intrathecal catheterization. After shaving the back of the head and neck, the rats were placed in a stereotaxic headholder with the head flexed forward. A 8-cm saline filled polyethylene tube (PE5) was placed into the subarachnoid space through a small puncture and threaded caudally so that the caudal tip rested on the rostral edge of the lumbar enlargement. The rats were allowed to recover for a minimum of 2-3 days prior to further study. […] Animals with impaired motor function (e.g. hind limb paralysis) were euthanized. Compounds: A CCR-2 antagonist having the formula: [drawing 1085] (CCR-2 Antagonist “A”) was tested in the formalin test and the mouse nerve injury model. A second CCR-2 antagonist: [drawing 1086] (CCR-2 Antagonist “B”) was tested in the formalin test only. Both compounds were diluted in 0.5% methylcellulose and were dosed p.o. at a volume of 0.2 ml per 30 g body-weight. For the formalin test, compounds were administered 60 min before the formalin injection. For the nerve injury model, Compound A was tested 4-5 days after surgery. A third CCR-2 antagonist having the formula: [drawing 1087] […] At Day 0, 1, 3, 4, 7, 10, 11, 15, 18 and 21 post dosing, 50% paw withdrawal threshold was determined."}, "[3]": {"test_system": "mechanical allodynia after spinal nerve ligation", "test": "L5-L6 spinal nerve ligation (Chung) model, 50% paw withdrawal threshold / % MPE", "assay_type": "in vivo, Sprague-Dawley rat", "settings": "rat", "description": "Intragastrical administration by gavage: Compound and vehicle were given via a 15 G Gavage needle at 1 ml/100 g of the rat body weight. L5-L6 Spinal Nerve Ligation (Chung): Male Sprague-Dawley rats (Taconic) were anesthetized with 2% gaseous isofluorane (For induction 3-5% and O2 […], for maintenance 2-3% and O2 […]). Following dorsal skin incision and muscle separation, the posterior interarticular traverse process of L/S1 was exposed and carefully removed with a mircro Rongeur. The L5 and L6 spinal nerves were tightly ligated by a square knot with 6-0 silk thread. The muscles were closed with 4-0 absorbable sutures and the skin was closed with wound clips. […] Animals were pre-tested and non-sensitive rats (50% paw withdrawal threshold above 3 g) were also excluded from compound testing. The results were expressed either as 50% paw withdrawal threshold, or in % maximal possible effect (MPE). MPE was calculated as follows: [formula] Pre-operation cut-off value is 15 grams. CCR-2 Antagonist C was evaluated in a multiple dosing study for 5 days. […] 50% paw withdrawal threshold following multiple dosing (3 mg/kg, PO, b.i.d.) of CCR-2 Antagonist C. Five days post spinal nerve ligation, the animals were tested before and 1 hr after dosing at 7 a.m. each day for 5 days. Data=Mean±SEM, n=10 rats. Efficacy: % MPE. […]"}, "[4]": {"test_system": "CFA-induced weight bearing deficit", "test": "Rat Complete Freund's Adjuvant (CFA) model, weight bearing", "assay_type": "in vivo, Sprague-Dawley rat", "description": "Complete Freund's Adjuvant (CFA): Male Sprague-Dawley rats (Charles River) were injected with CFA (150 μl) intraplantar into their left paw. This study included 3 groups: (1) CCR-2 Antagonist C at 3 mg/kg bid started 2 hours before CFA injection, (2) vehicle group and (3) CCR-2 Antagonist C at 10 mg/kg given on day 3 post-CFA (rats received vehicle on day 0-2)(n=6 per group). Rats were dosed for 3.5 days bid. Before the morning dose and two hours after it, weight bearing and paw size were measured. On the final day of the study (day 3 post-CFA) in addition to weight bearing, paw pressure threshold was also evaluated at 2 hr post dose."}}}
{"smiles": "CC(C)[C@]1(C(=O)N2CCc3ccc(C(F)(F)F)cc3C2)CCC(N[C@H]2CCOC[C@H]2C)C1", "note": "(some centres unmarked) [CCR-2 Antagonist A]", "values": [{"measurement": "effect in the formalin test versus vehicle", "setting": "[1]; 1 mg/kg p.o.", "result": "No difference with the vehicle group"}, {"measurement": "decrease of pain behavior in the formalin test", "setting": "[1]; 3 mg/kg p.o.", "result": 50, "unit": "%"}, {"measurement": "effect on phase 2 times of the formalin test", "setting": "[1]; 3 mg/kg p.o.", "result": "significantly decreased"}, {"measurement": "effect on phase 2 times of the formalin test", "setting": "[1]; 30 mg/kg p.o.", "result": "significantly decreased"}, {"measurement": "effect on phase 1 of the formalin test", "setting": "[1]; p.o., phase 1", "result": "no effect"}]}
{"smiles": "CO[C@H]1COCC[C@H]1NC1CC[C@@](C(=O)N2CCc3ncc(C(F)(F)F)cc3C2)(C(C)C)C1", "note": "(some centres unmarked) [CCR-2 Antagonist B]", "values": [{"measurement": "decrease of phase 2 of the formalin test", "setting": "[1]; 10 mg/kg", "result": 20, "unit": "%"}, {"measurement": "decrease of pain behavior in the formalin test", "setting": "[1]; 30 mg/kg p.o.", "result": 30, "unit": "%"}, {"measurement": "decrease of phase 2 of the formalin test", "setting": "[1]; 30 mg/kg", "result": 30, "unit": "%"}]}
{"smiles": "CC(C)[C@]1(C(=O)N2CCc3ncc(C(F)(F)F)cc3C2)CC[C@@H](NC2CCOC[C@H]2C)C1", "note": "(some centres unmarked) [CCR-2 Antagonist C]", "values": [{"measurement": "anti-allodynic effect (50% paw withdrawal threshold) of co-injection with MCP-1", "setting": "[2]; 20 μg/rat via intrathecal catheter with MCP-1 750 ng/rat, day 4, 7, 10 and 11", "result": "partial preemptive anti-allodynic effect"}, {"measurement": "effect of co-injection with MCP-1 on development of mechanical allodynia", "setting": "[2]; intrathecal co-injection with MCP-1", "result": "inhibited and delayed the development of mechanical allodynia"}, {"measurement": "efficacy in multiple dosing study (50% paw withdrawal threshold)", "setting": "[3]; 3 mg/kg PO b.i.d. for 5 days", "result": "significant efficacy"}, {"measurement": "Efficacy: % MPE, day from which efficacy is significant", "setting": "[3]; 3 mg/kg PO b.i.d., tested before and 1 hr after dosing each day for 5 days", "result": "Significant efficacy was observed starting at day 3"}, {"measurement": "effect on weight bearing", "setting": "[4]; 3 mg/kg bid, day 2 and 3", "result": "significantly reversed weight bearing"}, {"measurement": "effect on weight bearing on the affected limb", "setting": "[4]; 10 mg/kg, day 3", "result": "significantly reversed weight bearing"}]}
